In article PMC12186697, “HypoxyStat, a small-molecule form of hypoxia therapy that increases oxygen-hemoglobin affinity” (Cell, 2025):
Values joined by “and” are separate entries in the source; they are usually repeats but may differ in a detail not shown here. Equal entries are not always repeated.

Legend:
Ndufs4 KO mouse = Ndufs4 KO mouse model of Leigh syndrome (survival, body weight, temperature, behavior, neuropathology); type: in vivo
Source text: We continuously bred Ndufs4 Het x Het mice to generate KO and controls for our experiments. Ndufs4+/− and WT mice were used as controls as they are identical in all previously reported assays. Ndufs4 mice were obtained directly from Jackson labs (#027058). Pups were weaned and genotyped at ~21 d after birth. The age of mice at the time of experiments is described throughout the text. Male and female mice were used throughout studies. All cages were provided with food and water, with hydrated gel provided to newly weaned cages. Body weights were recorded at every dosing. Mice were euthanized according to guidelines at 20% drop in peak body weight. All animal studies were approved by the Institutional Animal Care & Use Committee (IACUC) Program at UCSF/Gladstone.
Mice were administered HypoxyStat at 600 mg/kg every other day or 400mg/kg daily via oral gavage. For the disease prevention experiments, KO mice that underwent daily dosing were dosed starting ~P30 for 1 week of 200mg/kg daily, followed by 400mg/kg daily to allow for gradual dose escalation. For the reversal study, KO mice were dosed once with 200mg/kg on postnatal day ~P55, followed by 400mg/kg daily. HypoxyStat was formulated as a suspension at 60 mg/mL, 40mg/ml or 80mg/ml depending on dose in 0.5%HPMC and stored at 4 °C. The formulation was determined to be stable for at least 8 weeks. Animal body weight was taken at time of dosing to determine appropriate dosing volume (10 mL/kg for every other day dosing, 5ml/kg for daily dosing). Vehicle treated mice were administered the same volume of 0.5% HPMC.
Mice were euthanized via CO2 inhalation. To perfuse the whole body, the right atrium was nicked and a needle was inserted into the left ventricle. Ice-cold PBS was slowly injected first, followed immediately by 4% PFA solution. The brain was removed, stored in 4% PFA for 24–48 h, and then washed with PBS for 5 min (3 times). The brains were placed in 70% ethanol followed by paraffin embedding. For paraffin sections, brains were sagittally sectioned at 5 μm thickness. Prior to staining, sections were deparaffinized. Antigen retrieval was performed by heating the slides to boiling temperature in 10 mM sodium citrate solution (pH 6) in a microwave, followed by heating for 10 minutes. The sections were rinsed 3 times for 5 minutes each with PBS. They were then incubated in a blocking solution containing 5% donkey serum (DS) in PBS-Tx (PBS with 0.2% Triton X-100) for 60 minutes at room temperature. After blocking, sections were incubated overnight at 4C with the primary antibody IBA1 (Genetex GTX100042, 1:250) and NeuN (Sigma, MAB377, 1:500). Afterward, the sections were rinsed 3 times for 5 minutes with PBS-Tx. Next, they were incubated with a fluorophore-conjugated secondary antibodies (Invitrogen, A21206 or A31570) for 1 hour at room temperature. Following secondary antibody incubation, the sections were rinsed 3 times for 5 minutes with PBS-Tx, and then once for 5 minutes with PBS. Histology was quantified using either the percentage of Iba1+ positive signal or blinded scoring (on the scale of 1–5).
The open field instrument (San Diego Instruments) was used to measure spontaneous locomotor activity. Mice were placed in open field chambers and allowed to acclimate for 5 min before movement tracking for 20min. Spontaneous locomotor activity was measured based on beam breaks and recorded by the instrument. Age of measurements is +/− 5 days for practical purposes without any age bias between groups.

[1] = molecular target: T1, hemoglobin (Hb) in human red blood cells (Homo sapiens, UniProt P69905); assay: Oxy-hemoglobin dissociation curve (Hemox Analyzer), p50; type: biochemical
T1 construct: incubated for at least one hour at 37C with whole blood before Hemox analysis; endogenous in cells; host or cells: human red blood cells / whole blood
Experimental: One of the most extensively studied compounds for sickle cell anemia is GBT-440 (Voxelotor) (Figure 1B).[25] The extent of left-shifting can be assessed by determining the p50 or the partial pressure of oxygen at which half of the total Hb pool is bound to oxygen. We incubated human red blood cells with GBT-440 and observed a ~75% decrease in p50 (from ~28 to ~7 mmHg), consistent with previously reported values (Figure 1D). Experiments were performed using a HemOx analyzer that monitors oxygen saturation via Hb absorbance across a range of dissolved oxygen tensions. Upon further review of the sickle cell anemia literature, we found another compound, hereafter termed HypoxyStat (Figure 1B), which appeared to have a similar p50 as GBT-440.[26] We confirmed that HypoxyStat induced an ~82% decrease in p50 (Figure 1D).
Oxy-hemoglobin dissociation analysis was performed by the UCSF RBC laboratory using the TCS Hemox Analyzer (TCS Medical Products Company, Huntington Valley, PA). Initial pO2 is set to 160 mmHg. Hemoglobin is fully oxygenated under these conditions (HbO% =100). Replacement of air with nitrogen lowers pO2 and is measured by Clark electrode along with the change in the absorbance spectrum of hemoglobin. At a pO2 of 0 mmHg, hemoglobin is fully deoxygenated (HbO% =0). The relation between pO2 and HbO% is plotted, and the pO2 at which HbO% = 50% is defined as P50. The typical sigmoid de-oxygenation curve of normal blood with a P50 of 26–28 mmHg is used as a control for incubation conditions and to ensure proper function of the Hemox analyzer. For left-shifter comparison, the compounds were dissolved in HEPES buffered saline and then incubated for at least one hour at 37C with whole blood before Hemox analysis. A control of whole blood incubated with vehicle is also reported.

[2] = parameters: method as in PMID 28337324; conditions: Figure 2A, cited from earlier work
Hb = test system: Hb; parameters: method as in PMID 28337324; conditions: Figure 2A; cited from earlier work
[3] = test system: hypoxia transcriptional response (HIF); assay: Hypoxia biomarkers in mice (plasma Epo, hematocrit, blood glucose, hypoxia-induced brain transcripts); type: in vivo, mouse; conditions: GBT-440
Experimental: Plasma Epo measurements were performed with R&D Systems Epo Elisa Kit (MEP00B) according to manufacturer directions. Briefly, whole blood was collected with anticoagulant before centrifugation within 30 minutes of collection and stored at −80C until day of analysis. On the day of Epo assay, samples were thawed and diluted 2-fold and incubated in the assay plate for two hours. Each well was washed five times before the addition of Epo Conjugate followed by a two-hour incubation. Each well was washed five times before adding Substrate Solution to develop for 30 minutes before addition of Stop Solution. The optical density of each well was determined at 450nm and correction wavelength of 540/570.
Hematocrit was determined with an iStat VetScan 1 with Zoetis Chem 8+ cartridges. Blood glucose measurements were performed using OneTouch UltraPlus glucometer. Whole blood chemistry measurements were performed on a VetScan HM5.
Half of the hindbrain was collected at necropsy and immediately flash frozen. For RNA extraction, a stainless-steel bead (Qiagen) and 1 mL TRIzol™ Reagent (Thermo Fisher Scientific) were added to the frozen samples, which were rapidly lysed using a tissue lyser (Qiagen) for five 1-minute cycles of 30 Hz frequency. Subsequent steps for RNA isolation were identical as previously described.[9] Reverse transcription was performed using the QuantiTect Reverse Transcription Kit (Qiagen) instructions. Briefly, gDNA was wiped out from samples containing 1 μg RNA. gDNA-free RNA samples were reverse transcribed following Qiagen’s instructions. […] For each set of triplicates, an average CT value was obtained, and the difference in average CT between the target gene and β-actin was calculated (ΔCT). Next, the difference in ΔCT value between each sample and the average of the normoxia samples was calculated (ΔΔCT). Relative expression of each gene was determined by calculating 2^−ΔΔCT.

[4] = GBT-440 daily maximal dosing from P30

T1 sequence (P69905 2-142 limits assumed): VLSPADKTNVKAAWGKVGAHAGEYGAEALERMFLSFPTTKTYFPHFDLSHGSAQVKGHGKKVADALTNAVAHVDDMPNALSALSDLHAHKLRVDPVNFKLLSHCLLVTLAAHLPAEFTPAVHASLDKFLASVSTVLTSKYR
T1 sequence (P68871 2-147 partner limits assumed): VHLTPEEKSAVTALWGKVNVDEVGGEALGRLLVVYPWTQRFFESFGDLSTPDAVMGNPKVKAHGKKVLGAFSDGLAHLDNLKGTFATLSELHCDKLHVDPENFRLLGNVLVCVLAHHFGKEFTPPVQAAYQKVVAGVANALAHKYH

For CC(C)n1nccc1-c1ncccc1COc1cccc(O)c1C=O [GBT-440], the “lifespan of Ndufs4 KO mice vs vehicle” value (Ndufs4 KO mouse; GBT-440 daily maximal dosing (400 mg/kg after 1 week at 200 mg/kg) from P30) was “did not result in a significant lifespan extension”, the “spontaneous movement (open field), Ndufs4 KO mice” value (Ndufs4 KO mouse; [4]) was “failed to rescue” and the “time on an accelerating rotating rod, Ndufs4 KO mice” value (Ndufs4 KO mouse; [4]) was “failed to rescue”. The “body temperature of Ndufs4 KO mice” value (Ndufs4 KO mouse; GBT-440 daily maximal dosing from P30, ~P55) was “failed to rescue”, the p50 ([1]; human red blood cells incubated 1 h with 10 mM compound, vehicle ~28 mmHg) was 7.2 mmHg and ~ 7 mmHg and the “decrease in p50” value ([1]; human red blood cells incubated with compound, vs vehicle) was ~ 75%. For the same molecule, the “Mouse PO blood:plasma” value ([2]; PO) was 63.2, the “Mouse PO half-life” value ([2]; PO) was 15.8 h and the Cmax ([2]; mouse) was 2210 nM. For the same molecule, the “Hb occupancy” value (Hb) was 6.5% and the “hypoxia biomarker response compared with HypoxyStat and inhaled hypoxia” value [3] was “significantly blunted response”.
